Laboratory results reported in US8426569B2, “DNA capable of being amplified by PCR with high selectivity and high efficiency” (Riken, priority 2008, dated 2013).

Assays:
DeepVent DNA polymerase [1] = molecular target: T1, DeepVent DNA polymerase (Pyrococcus sp., UniProt Q51334, DEL493-1029); type: biochemical
[2] = molecular target: Klenow fragment of DNA polymerase I (KF exo-) (Escherichia coli, UniProt P00582, D355A/E357A)
DeepVent DNA polymerase [3] = molecular target: T1, DeepVent DNA polymerase; type: biochemical; remark: listed apart in the source

T1 sequence (Q51334 with tags, fused parts or gaps DEL493-1029): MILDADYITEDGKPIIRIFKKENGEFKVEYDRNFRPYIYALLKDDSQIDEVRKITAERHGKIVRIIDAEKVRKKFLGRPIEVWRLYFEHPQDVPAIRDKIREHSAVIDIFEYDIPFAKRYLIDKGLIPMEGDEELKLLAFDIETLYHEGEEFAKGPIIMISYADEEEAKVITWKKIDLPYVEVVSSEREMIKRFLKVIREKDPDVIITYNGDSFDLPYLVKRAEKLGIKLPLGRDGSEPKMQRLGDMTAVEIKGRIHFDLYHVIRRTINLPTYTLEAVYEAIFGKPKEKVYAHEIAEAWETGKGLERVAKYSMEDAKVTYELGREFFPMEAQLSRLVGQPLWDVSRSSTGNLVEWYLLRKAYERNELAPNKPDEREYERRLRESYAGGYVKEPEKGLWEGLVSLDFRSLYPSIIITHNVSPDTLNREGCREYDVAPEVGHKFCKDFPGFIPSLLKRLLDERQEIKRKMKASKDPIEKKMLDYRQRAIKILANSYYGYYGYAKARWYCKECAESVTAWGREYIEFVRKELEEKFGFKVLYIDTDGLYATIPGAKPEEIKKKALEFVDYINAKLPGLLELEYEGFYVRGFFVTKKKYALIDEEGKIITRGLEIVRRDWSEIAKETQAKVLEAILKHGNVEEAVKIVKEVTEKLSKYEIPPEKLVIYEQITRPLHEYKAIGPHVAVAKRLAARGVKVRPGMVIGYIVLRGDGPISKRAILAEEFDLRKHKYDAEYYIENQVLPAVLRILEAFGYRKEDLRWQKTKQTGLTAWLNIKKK
Klenow fragment of DNA polymerase I (KF exo-), sequence (P00582 324-928 D355A/E357A limits assumed): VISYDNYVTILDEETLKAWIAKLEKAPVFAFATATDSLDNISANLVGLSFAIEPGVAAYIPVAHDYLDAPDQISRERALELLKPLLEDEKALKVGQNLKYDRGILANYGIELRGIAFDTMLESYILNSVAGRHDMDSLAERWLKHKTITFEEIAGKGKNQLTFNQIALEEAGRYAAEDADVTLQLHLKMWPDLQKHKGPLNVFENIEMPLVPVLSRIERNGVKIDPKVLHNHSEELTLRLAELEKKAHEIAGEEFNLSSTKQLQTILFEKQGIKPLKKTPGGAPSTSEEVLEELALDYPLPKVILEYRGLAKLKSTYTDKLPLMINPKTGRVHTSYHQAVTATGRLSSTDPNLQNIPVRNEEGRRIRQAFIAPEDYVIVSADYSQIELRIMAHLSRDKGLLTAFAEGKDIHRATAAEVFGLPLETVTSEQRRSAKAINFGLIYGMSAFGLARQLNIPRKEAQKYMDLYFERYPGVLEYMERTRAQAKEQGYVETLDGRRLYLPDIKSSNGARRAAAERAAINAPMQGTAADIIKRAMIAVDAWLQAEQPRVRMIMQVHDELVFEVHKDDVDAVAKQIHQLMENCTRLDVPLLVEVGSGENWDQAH

`NCCCCCC(=O)NCC#Cc1cc([N+](=O)[O-])n([C@H]2C[C@H](O)[C@@H](COP(=O)(O)OP(=O)(O)OP(=O)(O)O)O2)c1` [NH2-hx-dPnTP, 1-(2-deoxy-β-D-ribofuranosyl)-4-[3-(6-amino-hexanamide)-1-propynyl]-2-nitropyrrole 5′-triphosphate] was tested, and the “amplification of the DNA fragment containing Ds” value (DeepVent DNA polymerase [1]) was “about 10^8 times”, the “conservation of the unnatural base Ds in DNA (sequencing analysis)” value (DeepVent DNA polymerase [1]) was “almost completely conserved” and the “incorporation efficiency into Ds relative to that of the Pn substrate” value [2] was “about twice”. The “incorporation efficiency into natural bases in the template strand” value [2] was “lower than the incorporation efficiency into Ds” and the “conservation of both two sites of the unnatural base Ds in DNA (sequencing pattern analysis)” value (DeepVent DNA polymerase [3]) was “almost completely conserved”.
